Patent publication US20170304386A1, “METHOD FOR INHIBITING SURVIVAL, TUMORIGENESIS AND METASTASIS OF CANCER CELLS AND/OR CANCER STEM CELLS” (priority 2014, published 2017)
Entries after “also recorded” stand apart in the source; their conditions may differ. Residues, ends and D or L forms follow the SMILES beside them. *: point of attachment. Cbz = O=C(OCc1ccccc1)*

Key:
[1] = tested on: culture-enriched TICs (SPH) of HT29 and ALDH+ cells isolated from HCW primary liver metastasis cancer cells and fresh cancer cells; assay: TUNEL assay of TICs cultured in spheroid (suspension) condition; assay type: cell-based, human; conditions: spheroid condition 24 hours; S3I-201 50 μM
Method: FIGS. 8a-8f show the suspension survival ability determines tumourigenicity and corresponds to clinical tumour staging and survival. […] FIGS. 8b and 8c show the culture-enriched TICs (SPH) of HT29 and ALDH^+ cells isolated from HCW primary liver metastasis cancer cells and fresh cancer cells were cultured in spheroid condition for 24 hours with treatment of STAT3 inhibitor (S3I-201, 50 μM) or 1:25 dilution of the 0.25 mg/ml anti-Col XVII antibody, followed by TUNEL assay. (Ab-1, Abcam; Ab-2, Pierce). […] FIG. 8e (top), representative pictures of positive staining of colorectal tumour tissues (different stages) are shown, FIG. 8e (bottom), quantification and the correlation between protein expression and tumour stages was subsequently determined. The results are expressed as percentage of DAB positive cells and every single plot represents a patient. The median is shown as a single black line. […] The expression of pS727STAT≧40% or Col XVII 50% was regarded as positive. Asterisks indicate significant differences determined by Fisher's exact test, one-way ANOVA, and log-rank test. […]
Detection of apoptosis was performed (Roche Molecular Biochemicals, Indianapolis, Ind.). […] Immunofluorescence is observed with fluorescence microscope.

enriched TICs (HT29) = assay: Tumourigenicity of enriched TICs (xenograft transplantation); assay type: in vivo, athymic nude mice; conditions: TICs directly treated with S3I-201 50 μM, or S3I-201 5 mg/kg intravenously post injection of TICs
Method: FIGS. 8a-8f show the suspension survival ability determines tumourigenicity and corresponds to clinical tumour staging and survival. […] FIGS. 8b and 8c show the culture-enriched TICs (SPH) of HT29 and ALDH^+ cells isolated from HCW primary liver metastasis cancer cells and fresh cancer cells were cultured in spheroid condition for 24 hours with treatment of STAT3 inhibitor (S3I-201, 50 μM) or 1:25 dilution of the 0.25 mg/ml anti-Col XVII antibody, followed by TUNEL assay. (Ab-1, Abcam; Ab-2, Pierce). […] FIG. 8e (top), representative pictures of positive staining of colorectal tumour tissues (different stages) are shown, FIG. 8e (bottom), quantification and the correlation between protein expression and tumour stages was subsequently determined. The results are expressed as percentage of DAB positive cells and every single plot represents a patient. The median is shown as a single black line. […] The expression of pS727STAT≧40% or Col XVII 50% was regarded as positive. Asterisks indicate significant differences determined by Fisher's exact test, one-way ANOVA, and log-rank test.
The protocols were approved by the Institutional Animal Committee of Taipei Veterans General Hospital. […] Tumour cells were injected subcutaneously (s.c.) and tumour growth was monitored every week for up to 3 months. […]

Col XVII = assay: Immunoblot of Col XVII shedding in A549 spheroid culture; assay type: cell-based, human; conditions: A549 spheroid culture 12 days; PMA 100 nM, 1,10-phenanthroline 20 μM
Method: (§1) Knockdown of ADAMS or ADAM10 inhibited shedding of Collagen XVII and reduced laminin-5 expression in A549 cells cultured in spheroid culture.
The lung cancer cell lines A549 and CL1-1 were obtained from the American Type Culture Collection. Cells were grown in Dulbecco's Modified Eagle Medium (DMEM) (Gibco, Grand Island, N.Y.) containing 10 units/ml penicillin, 10 μg/ml streptomycin, 2 mM glutamine, and 10% fetal bovine serum (FBS; Gibco), in a 37° C. humidified atmosphere with 5% CO2. For enrichment of cancer stem-like cells (CSCs) in spheroid culture, lung cancer cells were suspended in tumor sphere medium consisting of serum-free DMEM/F12 (Gibco), N2 supplement (Gibco), human recombinant epidermal growth factor (EGF) (20 ng/ml, PeproTech, Rocky Hill, N.J.), and basic fibroblastic growth factor (bFGF) (10 ng/ml, PeproTech). […] Sphere numbers were counted at day 12 of culture. […]
Cell extracts were prepared with M-PER (Pierce, Rockford, Ill.) plus protease inhibitor cocktail (Halt™; Pierce) and protein concentrations were determined using the bicinchoninic acid (BCA) assay (Pierce). […] Membranes were then probed with the indicated primary antibodies, reacted with the corresponding secondary antibodies, and results detected using a chemiluminescence assay (Millipore, Billerica, Mass.). […]

laminin-5 = assay: Western blot of laminin-5 level and degradation in A549 spheroid culture; assay type: cell-based, human; conditions: for level of laminin 5: A549 spheroid culture 12 days, PMA 100 nM, 1,10-phenanthroline 20 μM; for laminin 5 protein half-life / degradation: A549 suspension cells, spheroid medium containing cycloheximide 50 μg/ml
Method: as §1
(§2) The lung cancer cell lines A549 and CL1-1 were obtained from the American Type Culture Collection. Cells were grown in Dulbecco's Modified Eagle Medium (DMEM) (Gibco, Grand Island, N.Y.) containing 10 units/ml penicillin, 10 μg/ml streptomycin, 2 mM glutamine, and 10% fetal bovine serum (FBS; Gibco), in a 37° C. humidified atmosphere with 5% CO2. For enrichment of cancer stem-like cells (CSCs) in spheroid culture, lung cancer cells were suspended in tumor sphere medium consisting of serum-free DMEM/F12 (Gibco), N2 supplement (Gibco), human recombinant epidermal growth factor (EGF) (20 ng/ml, PeproTech, Rocky Hill, N.J.), and basic fibroblastic growth factor (bFGF) (10 ng/ml, PeproTech). Cell colonies >100 μm in diameter and >50% in area showing 3-dimensional structure and blurred cell margins were defined as spheres. Sphere numbers were counted at day 12 of culture. Cells were harvested and protein lysates were collected for further experiments. Treatment reagents included FAK inhibitor (20 μM) (Calbiochem, San Diego, Calif.; Merk, Schwalbach, Germany), LY294002 (10 μM) (Calbiochem), 1,10-phenanthroline (20 μM) (Sigma-Aldrich; St. Louis, Mo.), PMA (100 nM) (Sigma-Aldrich) and Cyclohexamide (50 μg/ml) (Calbiochem).
(§3) Cell extracts were prepared with M-PER (Pierce, Rockford, Ill.) plus protease inhibitor cocktail (Halt™; Pierce) and protein concentrations were determined using the bicinchoninic acid (BCA) assay (Pierce). Aliquots of protein lysates were separated on SDS-10% polyacrylamide gels and transferred to PVDF membrane filters, followed by blocking with 5% blotting grade milk (Bio-Rad, Hercules, Calif.) in TBST (20 mM Tris-HCl [pH 7.6], 137 mM NaCl, 1% Tween 20). Membranes were then probed with the indicated primary antibodies, reacted with the corresponding secondary antibodies, and results detected using a chemiluminescence assay (Millipore, Billerica, Mass.). Membranes were exposed to X-ray film to visualize the bands (Amersham Pharmacia Biotech, Piscataway, N.J.).

EMT markers = assay: Western blot of Snail and EMT markers in A549 spheroid culture; assay type: cell-based, human; conditions: PMA 100 nM, 1,10-phenanthroline 20 μM
Method: as §1, §2, §3

A549 cells [2] = assay: Migration assay (Boyden chambers); assay type: cell-based, human; conditions: PMA 100 nM, 1,10-phenanthroline 20 μM
Method: as §1
Cell migration assay was performed using Boyden chambers. At the end of the assay, cells in the upper chamber and on the upper filter surface were removed, whereas cells on the lower filter surface were fixed with ethanol and stained with Giemsa (Sigma-Aldrich). The number of migrating cells was determined by counting cells in 10 random fields/filter at 200× magnification. Data were calculated as a percentage of migrated cells in the absence of chemoattractant or adherent culture, which was considered as 100%. All experiments were performed in triplicate.

A549 cells [3] = assay: Invasion assay (Matrigel Invasion Chambers); assay type: cell-based, human; conditions: PMA 100 nM, 1,10-phenanthroline 20 μM
Method: as §1
Cell invasion assays were performed using 24-well BD Biocoat Matrigel Invasion Chambers (Becton, Dickinson and Company, San Jose, Calif.) according to the manufacturer's instructions. In brief, cells were seeded into upper inserts (2.5×10^4 cells/insert) in DMEM supplemented with 0.1% bovine serum albumin (BSA). Outer wells were filled with DMEM containing 10% FBS as the chemoattractant. After 24 hours of incubation, the membranes with invaded cells were stained with Giemsa (Sigma), washed and mounted on slides. The entire membrane with invading cells was counted by light microscopy. Data are expressed as the number of invaded cells/well. Each assay was performed in triplicate and repeated at least twice.

A549 cells [4] = assay: Wound healing assay; assay type: cell-based, human; conditions: PMA 100 nM, 1,10-phenanthroline 20 μM
Method: as §1
An in vitro model of the ability of A549 and CL1-1 lung cancer cells to migrate in a monolayer culture was used to measure wound healing ability. Lung cancer cells were seeded into 6-well plates and incubated overnight. The cells were disrupted by scraping them with a […] pipette tip. […] The percent of wounded area filled was calculated as follows: [(mean wound width-mean remaining width)/mean wound width]×100(%).

laminin 5 = assay: Western blot of laminin 5 protein with cycloheximide with or without MG132; assay type: cell-based, human; conditions: TICs with Col17a1 knockdown; 50 μg/ml cycloheximide; 10 μM MG132; 6, 12, 24, 36 hours
Method: FIGS. 5a-5k show the Col XVII-mediated suspension survival ability depends on laminin 5 and FAK activation. FIGS. 5a and 5b show the Bulk cancer cells (Bulk) and spheroid culture-enriched TICs (SPH) were cultured in spheroid condition for 10 h, followed by FIG. 5a (western blot assay), and FIG. 5b (immunofluorescence) followed by examination with a confocal microscope. […] FIGS. 5e-5f show the spheroid cultures of cells overexpressed with control shRNAs (CTR) or different Col17a1 shRNAs, si(1) and si(2) were assayed for mRNA and protein levels (FIG. 5e), and immunostaining (CCS)(FIG. 5f) followed by examination with a confocal microscope. FIG. 5g (top), western blot analysis for spheroid culture-enriched TICs expressing control shRNAs (CTR) or Col17a1 shRNAs, si(1) or si(2), treated with 50 μg/ml cycloheximide in the presence or absence of 10 μM MG132 for 6, 12, 24, and 36 hours. FIG. 5g (bottom), graphical representation of the relative band intensities of laminin 5 protein. […]
Cells were lysed and protein was extracted using M-PER (Pierce, Rockford, Ill.) plus protease inhibitor cocktail (Pierce), and the protein concentrations were determined by the BCA assay (Pierce). […] The membrane was then hybridized with primary antibodies followed by corresponding secondary antibodies, and then detected using a chemiluminescence assay (Millipore, Billerica, Mass.). […]

[5] = tested on: spheres formed by HT29 spheroid culture; assay: Live/Dead analysis of spheres pre-treated with enzymes, then suspension culture; assay type: cell-based, human; conditions: pre-treatment of spheres with enzyme, then suspension culture 24 hours

Molecule | shedding of COL XVII (Col XVII) | level of laminin 5 (laminin-5) | laminin 5 protein half-life / degradation (laminin-5) | EMT markers (EMT markers) | expression of Snail (EMT markers) | expression of epithelial marker E-cadherin (EMT markers) | expression of mesenchymal markers (EMT markers) | cell migration (A549 cells [2]) | invasion (A549 cells [3]) | wound closure (A549 cells [4]) | also measured
Cc1ccc(S(=O)(=O)OCC(=O)Nc2ccc(C(=O)O)c(O)c2)cc1 [S3I-201] |  |  |  |  |  |  |  |  |  |  | killing of TICs in suspension culture (TUNEL assay) [1]: killed TICs; tumour initiation (enriched TICs (HT29)): inhibited tumour initiation
c1cnc2c(c1)ccc1cccnc12 [1,10-phenanthroline] | decreased | negatively | degraded faster | reduced | reduced | increased | decreased | reduced | reduced | reduced | 
CC(C)C[C@@H](C=O)NC(=O)[C@H](CC(C)C)NC(=O)[C@H](CC(C)C)NC(=O)OCc1ccccc1 [MG132] (Cbz-Leu-Leu-Leu-aldehyde) |  |  |  |  |  |  |  |  |  |  | laminin 5 protein level (laminin 5): restored
chymotrypsin |  |  |  |  |  |  |  |  |  |  | cell death in suspension culture (Live/Dead analysis) [5]: cause cell death
CCCCCCCCCCCCCC(=O)O[C@@H]1[C@@H](C)[C@@]2(O)[C@@H](C=C(CO)C[C@]3(O)C(=O)C(C)=C[C@@H]23)[C@@H]2C(C)(C)[C@]12OC(C)=O [PMA] | increased; also recorded: stimulated | positively; also recorded: enhanced | longer half-life; also recorded: decreased degradation | activated | enhanced | decreased | increased | enhanced | enhanced | enhanced | 
